Measured values taken from BigSolDB 2.1.

CCCCCCCCCCCC(=O)O
Details | solubility (mole fraction)
in 1-bromopropane, 280.6 K | 0.0756
in 1-bromopropane, 283.8 K | 0.0997
in 1-bromopropane, 287.8 K | 0.15
in 1-bromopropane, 289.9 K | 0.185
in 1-bromopropane, 293.1 K | 0.239
in 1-bromopropane, 295.2 K | 0.275
in 1-bromopropane, 298.8 K | 0.34
in 1-bromopropane, 301.4 K | 0.404
in 1-bromopropane, 304.3 K | 0.473
in 1-bromopropane, 305.3 K | 0.528
in 1-bromopropane, 307.3 K | 0.573
in 1-bromopropane, 309.3 K | 0.645
in 1-bromopropane, 310.5 K | 0.709
in 1-bromopropane, 312.5 K | 0.775
in 1-bromopropane, 313.8 K | 0.859
in acetone, 286.6 K | 0.0794
in acetone, 290.1 K | 0.107
in acetone, 293.1 K | 0.146
in acetone, 293.3 K | 0.146
in acetone, 298 K | 0.224
in acetone, 299.9 K | 0.283
in acetone, 301.9 K | 0.34
in acetone, 303.4 K | 0.389
in acetone, 305.1 K | 0.449
in acetone, 306.7 K | 0.512
in acetone, 308.1 K | 0.568
in acetone, 310.9 K | 0.678
in acetone, 312 K | 0.735
in acetone, 313 K | 0.795
in acetone, 314.4 K | 0.857
in acetone, 315.2 K | 0.895
in isopropanol, 279.2 K | 0.0797
in isopropanol, 282.7 K | 0.104
in isopropanol, 285.9 K | 0.13
in isopropanol, 289.1 K | 0.164
in isopropanol, 293.1 K | 0.22
in isopropanol, 297.1 K | 0.283
in isopropanol, 301 K | 0.361
in isopropanol, 303 K | 0.409
in isopropanol, 304.4 K | 0.458
in isopropanol, 306.1 K | 0.513
in isopropanol, 308.1 K | 0.568
in isopropanol, 309.8 K | 0.648
in isopropanol, 311.2 K | 0.712
in isopropanol, 312.6 K | 0.777
in isopropanol, 314.1 K | 0.842
in isopropanol, 314.9 K | 0.896
in n-hexane, 279.9 K | 0.0292
in n-hexane, 282.5 K | 0.0408
in n-hexane, 283.6 K | 0.0502
in n-hexane, 286.9 K | 0.0736
in n-hexane, 289.7 K | 0.108
in n-hexane, 291.7 K | 0.134
in n-hexane, 293.9 K | 0.171
in n-hexane, 296.4 K | 0.223
in n-hexane, 297.5 K | 0.252
in n-hexane, 300.1 K | 0.322
in n-hexane, 301.8 K | 0.38
in n-hexane, 303.8 K | 0.442
in n-hexane, 305.9 K | 0.519
in n-hexane, 308 K | 0.593
in n-hexane, 311 K | 0.711
in n-hexane, 312.5 K | 0.777
in n-hexane, 314.2 K | 0.858
in n-propanol, 287.1 K | 0.13
in n-propanol, 289.6 K | 0.153
in n-propanol, 292.8 K | 0.192
in n-propanol, 295.1 K | 0.225
in n-propanol, 297.9 K | 0.275
in n-propanol, 299.9 K | 0.318
in n-propanol, 301.5 K | 0.353
in n-propanol, 303.5 K | 0.406
in n-propanol, 304.7 K | 0.44
in n-propanol, 306.5 K | 0.509
in n-propanol, 307.4 K | 0.541
in n-propanol, 308.7 K | 0.597
in n-propanol, 309.9 K | 0.644
in n-propanol, 310.7 K | 0.69
in n-propanol, 312.1 K | 0.749
in n-propanol, 313.4 K | 0.818
in n-propanol, 314.2 K | 0.873
in trichloroethylene, 282 K | 0.144
in trichloroethylene, 283.1 K | 0.157
in trichloroethylene, 284.6 K | 0.171
in trichloroethylene, 288.4 K | 0.216
in trichloroethylene, 291 K | 0.258
in trichloroethylene, 293 K | 0.295
in trichloroethylene, 296 K | 0.337
in trichloroethylene, 298.2 K | 0.389
in trichloroethylene, 301.2 K | 0.441
in trichloroethylene, 303.3 K | 0.516
in trichloroethylene, 306.7 K | 0.591
in trichloroethylene, 308.6 K | 0.666
in trichloroethylene, 310.5 K | 0.725
in trichloroethylene, 312.5 K | 0.806
in trichloroethylene, 313.5 K | 0.855
